# Experimental data published in patent US20240124460A1, “METHODS AND COMPOSITIONS FOR TARGETED PROTEIN DEGRADATION” (Ranok Therapeutics (Hangzhou) Co. Ltd., priority 2020, published 2024).
# Columns and labels:
# [1] = test system: U-87 MG human glioblastoma; test: U87 MG CCK-8 proliferation assay; type: cell-based; settings: Homo sapiens, U-87 MG, 72 h, U-87 MG cells, read-out: U87MG CCK-8
# Method in brief: (§1)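 3-fold dilution series, 20 μM–1.02 nM; ATCC culture conditions; CCK-8 absorbance read-out; % inhibition = 100 − (D−B)/(S−B)×100, S = DMSO cells, B = medium + DMSO, no cells.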
# HSP90α protein = molecular target: T1, HSP90α protein (Homo sapiens, UniProt P07900); test: HSP90α-binding FP (BODIPY) assay; settings: FP competition with BODIPY-labeled RNK04010
# T1 construct: purchased BPS Bioscience #50298
# Method in brief: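 Fluorescence polarization measured competition with N-terminal human HSP90α, using either FITC-geldanamycin or BODIPY-labelled triazolone RNK04010 as tracer (5 nM final each). Compounds were tested in 2.5-fold dilutions from 20 μM to 5.2 nM, with incubation at 25 °C for 120 min (FITC) or 300 min (BODIPY).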
# [2] = test system: MV-4-11 human acute myeloid leukemia; test: MV-4-11 CCK-8 proliferation assay; type: cell-based; settings: Homo sapiens, MV4-11; MV-4-11 cells, 72 hr
# Method in brief: as §1
Compound,EC50 [1] [µM],IC50 (HSP90α protein) [µM],EC50 [2] [µM]
"CCOc1cc(N2CCC(C(=O)N3CCC(CN4CCN(Cc5ccc(-n6c(C(=O)NC7(C)CC7)nnc6-c6cc(CC)c(O)cc6O)cc5)CC4)CC3)CC2)ccc1Nc1ncc2c(n1)N(S(C)(=O)=O)c1ccccc1C(=O)N2C [Compound 083, 4-(4-((4-((1-(1-(3-ethoxy-4-((5-methyl-11-(methylsulfonyl)-6-oxo-6,11-dihydro-5H-benzo[e]pyrimido[5,4-b][1,4]diazepin-2-yl)amino)phenyl)piperidine-4-carbonyl)piperidin-4-yl)methyl)piperazin-1-yl)methyl)phenyl)-5-(5-ethyl-2,4-dihydroxyphenyl)-N-(1-methylcyclopropyl)-4H-1,2,4-triazole-3-carboxamide]",< 0.1,< 0.1,< 0.1
"CCOc1cc(N2CCC(C(=O)N3CCC(CN4CCN(Cc5ccc(-n6c(C(=O)NC(CC)CC)nnc6-c6cc(CC)c(O)cc6O)cc5)CC4)CC3)CC2)ccc1Nc1ncc2c(n1)N(S(C)(=O)=O)c1ccccc1C(=O)N2C [Compound 084, 4-(4-((4-((1-(1-(3-ethoxy-4-((5-methyl-11-(methylsulfonyl)-6-oxo-6,11-dihydro-5H-benzo[e]pyrimido[5,4-b][1,4]diazepin-2-yl)amino)phenyl)piperidine-4-carbonyl)piperidin-4-yl)methyl)piperazin-1-yl)methyl)phenyl)-5-(5-ethyl-2,4-dihydroxyphenyl)-N-(pentan-3-yl)-4H-1,2,4-triazole-3-carboxamide]",0.1 to 1,0.1 to 1,< 0.1
"CCOc1cc(N2CCC(C(=O)N3CCN(Cc4ccc(-n5c(O)nnc5-c5cc(C)c(O)cc5O)cc4)CC3)CC2)ccc1Nc1ncc2c(n1)N(S(C)(=O)=O)c1ccccc1C(=O)N2C [Compound 085, 2-((4-(4-(4-(4-(3-(2,4-dihydroxy-5-methylphenyl)-5-hydroxy-4H-1,2,4-triazol-4-yl)benzyl)piperazine-1-carbonyl)piperidin-1-yl)-2-ethoxyphenyl)amino)-5-methyl-11-(methylsulfonyl)-5,11-dihydro-6H-benzo[e]pyrimido[5,4-b][1,4]diazepin-6-one]",0.1 to 1,0.1 to 1,< 0.1
"CCOc1cc(N2CCC(C(=O)N3CCN(Cc4ccc(-n5c(O)nnc5-c5cc(CC)c(O)cc5O)cc4)CC3)CC2)ccc1Nc1ncc2c(n1)N(S(C)(=O)=O)c1ccccc1C(=O)N2C [Compound 086, 2-((2-ethoxy-4-(4-(4-(4-(3-(5-ethyl-2,4-dihydroxyphenyl)-5-hydroxy-4H-1,2,4-triazol-4-yl)benzyl)piperazine-1-carbonyl)piperidin-1-yl)phenyl)amino)-5-methyl-11-(methylsulfonyl)-5,11-dihydro-6H-benzo[e]pyrimido[5,4-b][1,4]diazepin-6-one]",0.1 to 1,< 0.1,< 0.1
"CCCc1cc(-c2nnc(O)n2-c2ccc(CN3CCN(C(=O)C4CCN(c5ccc(Nc6ncc7c(n6)N(S(C)(=O)=O)c6ccccc6C(=O)N7C)c(OCC)c5)CC4)CC3)cc2)c(O)cc1O [Compound 087, 2-((4-(4-(4-(4-(3-(2,4-dihydroxy-5-propylphenyl)-5-hydroxy-4H-1,2,4-triazol-4-yl)benzyl)piperazine-1-carbonyl)piperidin-1-yl)-2-ethoxyphenyl)amino)-5-methyl-11-(methylsulfonyl)-5,11-dihydro-6H-benzo[e]pyrimido[5,4-b][1,4]diazepin-6-one]",0.1 to 1,0.1 to 1,< 0.1
"CCOc1cc(N2CCC(C(=O)NCc3ccc(-n4c(O)nnc4-c4cc(CC)c(O)cc4O)cc3F)CC2)ccc1Nc1ncc2c(n1)N(S(C)(=O)=O)c1ccccc1C(=O)N2C [Compound 088, 1-(3-ethoxy-4-((5-methyl-11-(methylsulfonyl)-6-oxo-6,11-dihydro-5H-benzo[e]pyrimido[5,4-b][1,4]diazepin-2-yl)amino)phenyl)-N-(4-(3-(5-ethyl-2,4-dihydroxyphenyl)-5-hydroxy-4H-1,2,4-triazol-4-yl)-2-fluorobenzyl)piperidine-4-carboxamide]",> 1,0.1 to 1,0.1 to 1
"CCOc1cc(N2CCC(C(=O)NCc3ccc(-n4c(O)nnc4-c4cc(CC)c(O)cc4O)cc3C(F)(F)F)CC2)ccc1Nc1ncc2c(n1)N(S(C)(=O)=O)c1ccccc1C(=O)N2C [Compound 089, 1-(3-ethoxy-4-((5-methyl-11-(methylsulfonyl)-6-oxo-6,11-dihydro-5H-benzo[e]pyrimido[5,4-b][1,4]diazepin-2-yl)amino)phenyl)-N-(4-(3-(5-ethyl-2,4-dihydroxyphenyl)-5-hydroxy-4H-1,2,4-triazol-4-yl)-2-(trifluoromethyl)benzyl)piperidine-4-carboxamide]",> 1,0.1 to 1,0.1 to 1
"CCCc1cc(-c2nnc(C(=O)NCCN3CCCCC3)n2-c2ccc(CN3CCN(CC4CCN(C(=O)C5CCN(c6ccc(Nc7ncc8c(n7)N(S(C)(=O)=O)c7ccccc7C(=O)N8C)c(OCC)c6)CC5)CC4)CC3)cc2)c(O)cc1O [Compound 093, 5-(2,4-dihydroxy-5-propylphenyl)-4-(4-((4-((1-(1-(3-ethoxy-4-((5-methyl-11-(methylsulfonyl)-6-oxo-6,11-dihydro-5H-benzo[e]pyrimido[5,4-b][1,4]diazepin-2-yl)amino)phenyl)piperidine-4-carbonyl)piperidin-4-yl)methyl)piperazin-1-yl)methyl)phenyl)-N-(2-(piperidin-1-yl)ethyl)-4H-1,2,4-triazole-3-carboxamide]",> 1,< 0.1,0.1 to 1
"CCOc1cc(N2CCC(C(=O)N3CCN(CCOc4ccc(Nc5cc(-n6nc(C(F)(F)F)c7c6CC(C)(C)CC7=O)ccc5C(N)=O)cc4)CC3)CC2)ccc1Nc1ncc2c(n1)N(S(C)(=O)=O)c1ccccc1C(=O)N2C [Compound 094, 4-(6,6-dimethyl-4-oxo-3-(trifluoromethyl)-4,5,6,7-tetrahydro-1H-indazol-1-yl)-2-((4-(2-(4-(1-(3-ethoxy-4-((5-methyl-11-(methylsulfonyl)-6-oxo-6,11-dihydro-5H-benzo[e]pyrimido[5,4-b][1,4]diazepin-2-yl)amino)phenyl)piperidine-4-carbonyl)piperazin-1-yl)ethoxy)phenyl)amino)benzamide]",> 1,0.1 to 1,0.1 to 1
"CCOc1cc(N2CCC(C(=O)NCCCNC(=O)O[C@H]3CC[C@H](Nc4cc(-n5nc(C(F)(F)F)c6c5CC(C)(C)CC6=O)ccc4C(N)=O)CC3)CC2)ccc1Nc1ncc2c(n1)N(S(C)(=O)=O)c1ccccc1C(=O)N2C [Compound 095, (1R,4R)-4-((2-carbamoyl-5-(6,6-dimethyl-4-oxo-3-(trifluoromethyl)-4,5,6,7-tetrahydro-1H-indazol-1-yl)phenyl)amino)cyclohexyl (3-(1-(3-ethoxy-4-((5-methyl-11-(methylsulfonyl)-6-oxo-6,11-dihydro-5H-benzo[e]pyrimido[5,4-b][1,4]diazepin-2-yl)amino)phenyl)piperidine-4-carboxamido)propyl)carbamate]",> 1,> 1,0.1 to 1
